Tested on: S. sanguis
Experiment: Anti-bacterial activity of bioactive glass supernates, survivors enumerated by viable counting
Assay type: cell-based
Details: non-bioactive glass derived alkaline solution, pH 9.8
Method: Nutrient broth (10 ml) was added to 5 grams of particulate bioactive glass with a pore size between 355 and 500 μm, 5 grams of glass beads (not bioactive glass) with a particle size between 455 and 600 μm, and no glass beads. The resulting solutions were incubated with rotation for 1 h at 37 C. 950 μl of each supernatant was removed and added to 50 μl of an overnight culture of S. sanguis, and incubated for 1 h at 37 C. Survivors were enumerated by viable counting.

How did the kills turn out when `[Na+].[OH-]` [NaOH] was run?
The kills was 40%.
